# Patent US9115159B2, “Phosphate compounds, a process for their preparation and pharmaceutical compositions containing them” (LES LABORATOIRES SERVIER, priority 2013, dated 2015)
# Values joined by “and” are separate entries in the source; they are usually repeats but may differ in a detail not shown here. Equal entries are not always repeated.
# Key:
# human Caco-2 cells = assay: In vitro test on human Caco-2 cells, cellular transport A to B; format: in vitro ADME; conditions: prodrug incubated, 120 minutes; for Yield (experiment yield), the drug after incubation of the prodrug / Fabs (predicted absorbed fraction in humans), the drug after incubation of the prodrug: corresponding drug measured; for Fabs (predicted absorbed fraction in humans), the drug after incubation of the prodrug: 1 or 3 μM; for Yield (experiment yield), compound measured: the prodrug itself: total amount found at the end versus incubated
# Method: The cellular transport from A to B (Apical to Basolateral) of the phosphate compounds of formula (I) and the compounds of formula (I′) (corresponding drugs) is studied in human Caco-2 cells. Each compound is deposited apically at 1 or 3 μM (in duplicate) and then incubated for 120 minutes.
# Several samples are taken during the experiment; • apically: immediately after deposition (t=0) and at 120 minutes • basolaterally: at the end of the experiment (120 minutes)
# The concentrations of the phosphate compound (prodrug) and/or of its hydroxylated homologue (drug) are determined by liquid chromatography coupled with mass spectrometric detection (LC-MS/MS). The limit of quantification for both entities is 2 ng/mL.
# The apparent permeability (Papp) and the predicted absorbed fraction (Fabs) in humans are calculated for the prodrug, for the drug after incubation of the prodrug and for the drug after incubation of the drug (Hubatsch et al, Nat Protoc. 2007; 2(9), 2111-2119).
# The experiment yield, which corresponds to the ratio (in percent) of the total amount of compound found at the end of the experiment versus that incubated, is also calculated.
# [1] = Pharmacokinetic profile / in vivo conversion after oral administration to SCID mice (plasma, LC-MS/MS); set-up: species or system female SCID mice
# Method: The pharmacokinetic profile of the phosphate compounds of formula (I) is evaluated in a lipid formulation and in aqueous solution in female SCID mice. This is compared to the pharmacokinetic profile of compounds of formula (I′) in a lipid formulation. More specifically, 4-[{[3-(6-{[(3S)-3-(morpholin-4-ylmethyl)-3,4-dihydroisoquinolin-2(1H)-yl]-carbonyl}-1,3-benzodioxol-5-yl)-5,6,7,8-tetrahydroindolizin-1-yl]carbonyl}(phenyl)-amino]phenyl disodium phosphate (also referred to as the compound of Example 1) was tested and compared to N-(4-hydroxyphenyl)-3-{6-[((3S)-3-(4-morpholinylmethyl)-3,4-dihydro-2(1H)-isoquinolinyl)carbonyl]-1,3-benzodioxol-5-yl}-N-phenyl-5,6,7,8-tetrahydro-1-indolizine carboxamide (also referred to as the drug from Example 1).
# The compound of Example 1 is prepared in a mixture of anhydrous ethanol/polyethylene glycol 300/water (10/40/50, v/v/v) intended for administration by the p.o. route. The study is carried out in 2 groups of SCID mice to which the compound of Example 1 is administered under the following conditions: • Group 1: 3 mg/kg p.o. (gavage, 10 mL/kg), • Group 2: 25 mg/kg p.o. (gavage, 10 mL/kg).
# Blood samples are taken at the following points in time (3 samples per animal and 3 animals for each point in time): 0.25 hr, 0.5 hr, 1 hr, 2 hrs, 6 hrs and 24 hrs after oral administration.
# The compound of Example 1 is also administered by the oral route in an aqueous medium to SCID mice, under the following conditions: • Group 1: 30 mg/kg p.o. dissolved in 1 mM sodium carbonate solution (gavage, 10 mL/kg), • Group 2: 100 mg/kg p.o. in water (gavage, 10 mL/kg).
# Blood samples are taken at the following points in time (3 animals for each point in time and 1 sample per animal): 0.25 hr, 0.5 hr, 1 hr, 2 hrs, 4 hrs, 6 hrs and 24 hrs after oral administration.
# For all formulations of the compound of Example 1, the blood thereby collected is centrifuged and the plasma is transferred to tubes containing 1M hydrochloric acid. The plasma concentrations of the phosphate compound (prodrug) and its hydroxylated homologue (drug) are determined simultaneously using a method of liquid chromatography coupled with mass spectrometric detection (TFC-LC-MS/MS). The limit of detection for both entities is 0.5 ng/mL.
# The drug from Example 1 is prepared in a mixture of anhydrous ethanol/polyethylene glycol 300/water (10/40/50, v/v/v) intended for administration by the p.o. route. The study is carried out in several groups of SCID mice to which the drug from Example 1 is administered under the following conditions: • Group 1: 3 mg/kg p.o. (gavage, 10 mL/kg), • Group 2: 30 mg/kg p.o. (gavage, 10 mL/kg), • Group 3: 25 mg/kg p.o. (gavage, 10 mL/kg), • Group 4: 100 mg/kg p.o. (gavage, 10 mL/kg).
# Blood samples are taken at the following points in time (3 animals for each point in time and 3 samples per animal for Groups 1-2 and 1 sample per animal for Groups 3 and 4): • p.o.: before administration and then 0.25 hr, 0.5 hr, 0.75 hr, 1 hr, 2 hrs, 4 hrs, 6 hrs, 8 hrs, 16 hrs and 24 hrs after oral administration at 3 and 30 mg/kg, • p.o.: 0.5 hr, 2 hrs, 6 hrs, 16 hrs and 24 hrs after oral administration at 25 mg/kg and 0.5 hr, 1 hr, 2 hrs, 6 hrs, 16 hrs, 30 hrs and 48 hrs after oral administration at 100 mg/kg.
# The plasma from the blood samples collected after administration of the lipid formulations of the drug from the compound of Example 1 are analysed by liquid chromatography coupled with mass spectrometric detection. The limit of quantification of the drug from the compound of Example 1 is less than or equal to 0.5 ng/mL.
# Non-compartmental pharmacokinetic analysis is carried out on the mean values of the plasma concentrations of the compounds tested. […]
# [2] = Solubility in aqueous medium buffered to physiological pH (phosphate 0.33M, pH 7.4); format: physicochemical; conditions: phosphate 0.33M, pH = 7.4
# Method: (§1) The solubilities of the compounds were also measured in a medium buffered to physiological pH (cf. Table 3).
# Solubility in water = format: physicochemical
# Method: The solubility of compounds of formula (I) in water was measured and compared with that of compounds of formula (I′).
# More specifically, 4-[{[3-(6-{[(3S)-3-(morpholin-4-ylmethyl)-3,4-dihydroisoquinolin-2(1H)-yl]carbonyl}-1,3-benzodioxol-5-yl)-5,6,7,8-tetrahydroindolizin-1-yl]carbonyl}-(phenyl)amino]phenyl disodium phosphate (also referred to as the compound of Example 1) was tested and compared to N-(4-hydroxyphenyl)-3-{6-[((3S)-3-(4-morpholinylmethyl)-3,4-dihydro-2(1H)-isoquinolinyl)carbonyl]-1,3-benzodioxol-5-yl}-N-phenyl-5,6,7,8-tetrahydro-1-indolizine carboxamide (also referred to as the drug from Example 1).
# as §1
# [3] = test system: cleaved (activated) form of caspase 3; assay: Quantification of the cleaved form of caspase 3 in vivo (MSD ELISA, RS4;11 xenograft tumour lysates); set-up: species or system mice (SCID strain); conditions: sampling time 2 hours, treated versus control mice
# Method: The ability of the compounds of formula (I′) to activate caspase 3 is evaluated in a xenograft model of RS4;11 leukaemia cells.
# 1×10^7 RS4;11 cells are grafted sub-cutaneously into immunosuppressed mice (SCID strain). 25 to 30 days after the graft, the animals are treated orally with the various compounds. After treatment, the tumour masses are recovered and lysed, and the cleaved (activated) form of caspase 3 is quantified in the tumour lysates.
# The quantification is carried out using the “Meso Scale Discovery (MSD) ELISA platform” test, which specifically assays the cleaved form of caspase 3. It is expressed in the form of an activation factor corresponding to the ratio between the quantity of cleaved caspase 3 in the treated mice divided by the quantity of cleaved caspase 3 in the control mice.
# The ability of the compounds of formula (I) to activate caspase 3 is evaluated in a xenograft model of RS4;11 leukaemia cells in accordance with the protocol given in Example A2.
# [4] = Example 1 administered 3 mg/kg p.o., lipid formulation
# [5] = Example 1 administered 25 mg/kg p.o., lipid formulation
# [6] = Example 1 administered 30 mg/kg p.o., aqueous formulation (1 mM sodium carbonate solution)
# [7] = Example 1 administered 100 mg/kg p.o., aqueous formulation (in water)
structure (smiles),measurement,setting,value
"O=C(c1cc(-c2cc3c(cc2C(=O)N2Cc4ccccc4C[C@H]2CN2CCOCC2)OCO3)n2c1CCCC2)N(c1ccccc1)c1ccc(OP(=O)([O-])[O-])cc1.[Na+].[Na+] [Example 1, 4-[{[3-(6-{[(3S)-3-(Morpholin-4-ylmethyl)-3,4-dihydroisoquinolin-2(1H)-yl]carbonyl}-1,3-benzodioxol-5-yl)-5,6,7,8-tetrahydroindolizin-1-yl]carbonyl}(phenyl)amino]phenyl disodium phosphate]","Yield (experiment yield), the drug after incubation of the prodrug",human Caco-2 cells,Yield (%) = 42
same,"Fabs (predicted absorbed fraction in humans), the drug after incubation of the prodrug",human Caco-2 cells; A to B,Fabs (%) = 71
same,"Papp, compound measured: the prodrug itself","human Caco-2 cells; A to B, deposited apically at 1 or 3 μM",Papp (10^−6 cm/s) = 0.01
same,"Yield (experiment yield), compound measured: the prodrug itself",human Caco-2 cells,Yield (%) = 0
same,"AUCt, compound measured: Example 1",[1]; [4],AUCt (ng · h/mL) = 5
same,"Tmax, compound measured: Example 1",[1]; [4],Tmax (h) = 0.25
same,"Cmax, compound measured: Example 1","[1]; Example 1 administered 3 mg/kg p.o., lipid formulation (ethanol/PEG 300/water 10/40/50)",Cmax (ng/mL) = 16
same,"AUCt, compound measured: Example 1",[1]; [5],AUCt (ng · h/mL) = 92
same,"Cmax, compound measured: Example 1",[1]; [5],Cmax (ng/mL) = 244
same,"Tmax, compound measured: Example 1",[1]; [5],Tmax (h) = 0.25
same,"AUCt, compound measured: Example 1",[1]; [6],AUCt (ng · h/mL) = 879
same,"Cmax, compound measured: Example 1",[1]; [6],Cmax (ng/mL) = 391
same,"Tmax, compound measured: Example 1",[1]; [6],Tmax (h) = 1.0
same,"AUCt, compound measured: Example 1",[1]; [7],AUCt (ng · h/mL) = 797
same,"Cmax, compound measured: Example 1",[1]; [7],Cmax (ng/mL) = 359
same,"Tmax, compound measured: Example 1",[1]; [7],Tmax (h) = 2.0
same,Solubility at 10 μM,[2]; 10 μM,Soluble
same,Solubility at 20 μM,[2]; 20 μM,Soluble
same,Solubility at 50 μM,[2]; 50 μM,Soluble
same,Solubility at 100 μM,[2]; 100 μM,Soluble
same,solubility in water,Solubility in water,greater than or equal to 10 mg/mL and ≥ 12.6 mM
same,Activation factor +/− S.E.M.,"[3]; Table 2, 50 mg/kg oral",21.2 +/− 1.3
"Cc1c(C(=O)N(c2ccc(OP(=O)([O-])[O-])cc2)c2cnn(C)c2)cc(-c2cc(F)ccc2C(=O)N2Cc3ccccc3C[C@H]2CN2CCOCC2)n1C.[Na+].[Na+] [Example 15, 4-[{[5-(5-Fluoro-2-{[(3S)-3-(morpholin-4-ylmethyl)-3,4-dihydroisoquinolin-2(1H)-yl]carbonyl}phenyl)-1,2-dimethyl-1H-pyrrol-3-yl]carbonyl}(1-methyl-1H-pyrazol-4-yl)amino]phenyl disodium phosphate]",Activation factor +/− S.E.M.,"[3]; Table 2, 25 mg/kg oral",12.1 +/− 1.1
"Cc1c(C(=O)N(c2ccc(OP(=O)([O-])[O-])cc2)c2cc(C#N)n(C)c2)cc(-c2cc(Cl)ccc2C(=O)N2Cc3ccccc3C[C@H]2CN2CCOCC2)n1C.[Na+].[Na+] [Example 21, 4-[{[5-(5-Chloro-2-{[(3S)-3-(morpholin-4-ylmethyl)-3,4-dihydroisoquinolin-2(1H)-yl]carbonyl}phenyl)-1,2-dimethyl-1H-pyrrol-3-yl]carbonyl}(5-cyano-1-methyl-1H-pyrrol-3-yl)amino]phenyl disodium phosphate]","Yield (experiment yield), the drug after incubation of the prodrug",human Caco-2 cells,Yield (%) = 100
same,"Fabs (predicted absorbed fraction in humans), the drug after incubation of the prodrug",human Caco-2 cells; A to B,Fabs (%) = 19
same,"Yield (experiment yield), compound measured: the prodrug itself",human Caco-2 cells,Yield (%) = 0.83
same,Activation factor +/− S.E.M.,"[3]; Table 2, 25 mg/kg oral",55.2 +/− 6.2
